Assay: Solid-form stability on compression into a disk (XRPD)
Format: physicochemical
Conditions: compressed into a disk at 3400 pounds of pressure (117 MPa) for 1 minute, Carver hydraulic press and pellet die
Source text: In various embodiments, the novel betaine cocrystal of epalrestat described herein is stable.

betaine hydrogen diepalrestat [betaine hydrogen diacid cocrystal]
change in XRPD pattern after compression: no change in the XRPD pattern
